According to patent US7186699B2, “Method for treating cancer by vector-mediated delivery of one or more anti-angiogenic or pro-apoptotic genes” (Cell Genesys, Inc., priority 2003, dated 2007):
Positions count from the first letter of the chain named. Where a SMILES comes first, the peptide text is derived from it. The star is where a group is joined. Cbz = O=C(OCc1ccccc1)*; CH2F = FC*

Assays:
[1] = test system: Colo-205 cells; experiment: DNA fragmentation (apoptosis) ELISA in Colo-205 cells; assay type: cell-based, human
Description: Apoptosis, e.g. […]
DNA fragmentation is quantitated by a photometric enzyme-immunoassay (Cell Death Detection ELISA Assay, Roche) for measuring cytoplasmic histone-associated nucleosomes according to the manufacturer's protocols. % Apoptosis is defined as relative increase in DNA fragmentation in treated vs. control cells calculated by [O.D. Treated−background]/[Maximal O.D.−Background].

[2] = test system: Caspase 3; experiment: Caspase 3 protease activity in Colo-205 cell lysates (DEVD-pNA); assay type: cell-based, human
Protocol: (§1) In certain assays, cells are pre-treated with 20 uM of the pan-caspase inhibitor, ZVAD-fmk (RnD Systems), 1 hr prior to stimulation with TRAIL or control agents.

[3] = test system: Caspase 8; experiment: Caspase 8 protease activity in Colo-205 cell lysates (IETD-pNA); assay type: cell-based, human
Protocol: as §1

[4] = test system: HT29 colorectal tumor cells; experiment: Chemosensitization of HT29 colon cancer cells to TRAIL; assay type: cell-based, human
Protocol: FIGS. 17A–C show augmentation of sTRAIL-induced HT29 colon cancer cytotoxicity by chemotherapy sensitization.
(§2) Tumor cells are plated at 1e4 cells per well in 96-well plates and incubated overnight at 37 C after which time the cells are left untreated or treated with the indicated sub-toxic doses of chemotherapeutic agents. After 24 hr, the cells are left untreated, or treated with sub-toxic doses of recombinant human TRAIL or AAV-produced TRAIL for an additional 24, 48 or 72 hr. Cell viability is evaluated using a tetrazolium-salt (WST-8) based proliferation assay (Cell Counting Kit-8, Dojindo Laboratories, Japan) according to the manufacturer's recommendations. % Cytotoxicity/Growth Inhibition was defined as [1-(OD treated−background)/(OD untreated−background)×100].
(§3) The specificity of TRAIL-induced cell death was tested in a variety of tumor and normal cells. […] The combinatorial cytotoxic effects of TRAIL and chemotherapy were tested in a panel of tumor cells.

[5] = test system: colorectal tumor cell lines (HT29, HCT-116, Colo-205); experiment: Combination of sTRAIL and COX inhibitors in colorectal tumor cell lines; assay type: cell-based, human; conditions: combined with high doses of SC-560 and Celebrex
Protocol: as §3

[6] = test system: A549 lung carcinoma, U87MG glioma, MCF7 breast carcinoma, PC-3 prostate carcinoma; experiment: Chemosensitization of tumor cells to TRAIL; assay type: cell-based, human; conditions: A549+cisplatin, U87MG+etoposide, MCF-7+doxorubicin, PC-3+doxorubicin; 24 hr pre-treatment with sub-toxic doses, then 24 hr TRAIL
Protocol: FIGS. 16A–D show augmentation of sTRAIL-induced tumor cell cytotoxicity by chemotherapy sensitization 1 e4 tumor cells were pretreated with genotoxic agents for 24 hr to sensitize, then subsequently treated with sTRAIL for 24 hr. Viability was measured by WST-8 tetrazolium salt assay after 24 hr sTRAIL treatment and % Growth inhibition=[1-(OD treated−background)/(OD untreated−background)×100].
as §2, §3

[7] = test system: human tumor cell lines; experiment: Sensitivity of tumor cell lines to TRAIL, WST-8 cytotoxicity assay; assay type: cell-based; conditions: human tumor cell lines from diverse tissues; 24 hr; FIG. 14
Protocol: Briefly, 1e4 tumor cells (ATCC), or normal primary cells (BioWhittaker), are seeded in one well of a 96-well titer plate and incubated overnight at 37° C. Cells are then treated with the test or control agents for 24, 48 or 72 hr. Following treatment, cell viability is evaluated using a tetrazolium-salt (WST-8) based proliferation assay (Cell Counting Kit-8, Dojindo Laboratories, Japan) according to the manufacturer's recommendations. % Cytotoxicity/Growth inhibition is defined as [1-(OD treated−background)/(OD untreated−background)×100].
as §3

[8] = test system: Colo-205 cells; experiment: Colo-205 growth inhibition/viability, WST-8 tetrazolium assay; assay type: cell-based, human; conditions: 24, 48 and 72 hr treatment, FIG. 10B/10C
Protocol: Cell proliferation was evaluated using a WST-8-based tetrazolium salt viability assay using the formulas: % Viability=[OD (sTRAIL) treated−background]/[OD (GFP) untreated−background]×100 and % Growth Inhibition=[1-(OD treated−background)/OD untreated−background)]×100.

[9] = test system: VEGF induced vessel sprouting; experiment: Chick chorioallantoic membrane (CAM) assay; assay type: in vivo; conditions: 25 ng VEGF with 0.1, 1 and 10 ng protein from conditioned media; 72 hr
Protocol: FIG. 4 illustrates the results of experiments that show PF4 and PF4(DLR) reduce VEGF stimulated angiogenesis in the chick chorioallantoic membrane (CAM) assay. Hyrdocortisone-containing filter disks were soaked with 25 ng of VEGF together with 0.1 ng, 1 ng and 10 ng of PF-4 or PF-4(DLR) derived from conditioned media. AAV-null, 293 cell supernatant and an internal PF-4 protein standard, PF4-Blast, were included in the assay as separate controls. Filter disks were aseptically placed on top of the chorioallantoic membranes of 11 day chick embryos. 72 hours after incubation the CAMs were surgically removed, fixed and the number of vessel sprouts determined by stereomicroscopy.
Hydrocortisone-containing filter discs are soaked with 25 ng Vascular Endothelium Growth Factor (VEGF) (R&D Systems, Minneapolis, Minn.) together with the indicated doses of conditioned media from control or vector transduced cells, and aseptically placed on top of the chorioallantoic membranes of 11 day old chick embryos. After 72 hr incubation, the CAMs are surgically removed, fixed and the discs are analyzed for VEGF-induced angiogenesis by stereomicroscopy. The mean number (+/−SEM) of branch points occurring in the new blood vessel sprouts beneath the applied filter disc from the treated CAMs is enumerated from multiple (n=8–10) samples. […]

[10] = Colo-205 cells pre-incubated with 20 uM inhibitor
[11] = Colo-205 cells, 4 hr incubation

COC(=O)C[C@H](NC(=O)[C@H](C)NC(=O)[C@@H](NC(=O)OCc1ccccc1)C(C)C)C(=O)CF [ZVAD-fmk] (Cbz-Val-Ala-Asp(OMe)-CH2F)
Effect on sTRAIL induced DNA fragmentation ([1]; Colo-205 cells pre-incubated with increasing amounts of inhibitor, 6 hr after sTRAIL treatment): prevents sTRAIL induced DNA fragmentation in a dose-dependent manner | Effect on TRAIL-induced caspase 3 protease activity [2, 10]: blocking of TRAIL-induced caspase protease activity | Effect on TRAIL-induced caspase 8 protease activity [3, 10]: blocking of TRAIL-induced caspase protease activity

TRAIL
Cytotoxic effect combined with chemotherapy ([4]; combined with sub-toxic doses of doxorubicin, cisplatin, or camptothecin): synergistic cytotoxic effect | Cell death with TRAIL alone ([4]; sub-optimal doses of TRAIL): refractory to cell death | Cytotoxic activity combined with cyclo-oxygenase-2 inhibitors [5]: synergistic cytotoxic activity

recombinant human TRAIL: recombinant human TRAIL purchased from a commercial vendor (RnD Systems)
Cytotoxic effect combined with chemotherapy [6]: augmented cytotoxic effect | Cytotoxicity in tumor cell lines [7]: cytotoxicity was observed in a wide spectrum of human tumor cell lines | 50% effective dose (ED50) for induction of apoptosis (DNA fragmentation) ([1]; Colo-205 cells, 6 hr incubation (sTRAIL 6, 16 and 24 hr), FIG. 11): approximately 1 ng/ml | 50% effective dose of Colo-205 growth inhibition [8]: approximately 0.5 ng/ml | Induction of caspase 3 protease activity [2, 11]: Dose-dependent induction | Induction of caspase 8 protease activity [3, 11]: Dose-dependent induction

B1: PF-4: platelet factor-4 from conditioned media of transfected 293 cells (SEQ ID NO:7) (protein)
chain: MSSAAGFCASRPGLLFLGLLLLPLVVAFASAEAEEDGDLQCLCVKTTSQVRPRHITSLEVIKAGPHCPTAQLIATLKNGRKICLDLQAPLYKKIIKKLLES
modifications: platelet factor-4
VEGF induced vessel sprouting [9]: blockage of VEGF induced vessel sprouting

B2: PF-4(DLR): platelet factor-4 with the DLR mutation (SEQ ID NO:9) from conditioned media (protein)
chain: B1 chain with Q87R
modifications: platelet factor-4 with DLR mutation
VEGF induced vessel sprouting [9]: blockage of VEGF induced vessel sprouting
